No end group written: not given here.
How the values were obtained:
α-chymotrypsin = assay: SPR interaction with α-chymotrypsin; assay type: binding; settings: for SPR binding to α-chymotrypsin (in words): peptide immobilized on CM4 chip
Method: (§1) The interaction of the peptides with serine proteinases (trypsin, α-chymotrypsin, human neutrophil elastase, pancreatic kallikrein and cathepsin G) was studied using the surface plasmon resonance (SPR) method. The peptides were immobilized on a CM4 sensor chip. […] Kinetic parameters were calculated at 25 °C. Obtained data indicated the formation of tight complexes and eliminated non-specific binding (Table 2).
(§2) The study of the interaction of serine proteinases with rHCIQ2c1 and rHCIQ4c7 was performed on SPR biosensor Biacore 3000 (GE Healthcare, USA) running under the program “Biacore 3000 Control Software v.1.0”. The evaluation of data was carried out using “Biacore Evaluation v.4.1”. Peptides were covalent immobilized on carboxymethylated surface of the Biacore CM4 sensor chip (GE Healthcare, USA) activated by EDC/NHS (N-hydroxysuccinimide/1-ethyl-3-(3-dimethylaminopropyl)carbodiimide hydrochloride) mixture by the injection of peptide solution (100 µg/ml) in 10 mM sodium acetate (pH 5.5) during 10 min with flow rate 5 µl/min. Quantities of immobilized peptides were 970 RU (resonance units, 1 RU corresponds 1 pg peptide) for rHCIQ2c1 and 460 RU for rHCIQ4c7. In all of the experiments, the flow cell 1 (Fc1) without the immobilized polypeptides was considered as the reference cell for the correction of the signal responses. HBS (HEPES buffered saline-NaCl): 0.15 M NaCl, 0.01 M HEPES, pH 7.4 (cat. no. BR-1003-69, GE Healthcare, USA) was used as the running buffer for the SPR assays. Protease solutions at concentrations from 1 nM to 5 μM were passed through measuring and control biosensor cells at 25 °C during 5 min with a flow rate 5 µl/min. Further complex breakdown was recorded during at most 10 min. After each cycle of SPR measurement, the sensing surface was regenerated by the injection of 50 mM NaOH for 0.5 min at a flow rate of 50 μl/min. Changes in Gibbs free energy (ΔG) at 25 °C were calculated by the following equation:1 ΔG=RTlnKD, where KD is the dissociation constant. Changes in enthalpy (ΔH) and entropic term (−TΔS) were calculated from the linear equation:2 ΔG=ΔH−TΔS, using the liner approximation of temperature dependence of ΔG (Van’t Hoff diagram).

[1] = test system: human neutrophil elastase; assay: SPR interaction with neutrophil elastase; assay type: binding; settings: for SPR binding to neutrophil elastase (in words): peptide immobilized on CM4 chip; for ka, association rate constant / kd, dissociation rate constant: protease 1 nM to 5 μM
Method: as §1, §2

cathepsin G = assay: SPR interaction with cathepsin G; assay type: binding; settings: for SPR binding to cathepsin G (in words): peptide immobilized on CM4 chip
Method: as §1, §2

rKv1.6 = assay: Two-electrode voltage clamp, rKv1.6 in X. laevis oocytes; assay type: cell-based; settings: 10 μM, 18–22 °C, n ≥ 3
Method: (§3) For the expression of the voltage-gated potassium channels (rKv1.1, rKv1.2, hKv1.3, rKv1.4, rKv1.5, rKv1.6, Shaker IR and hERG) in X. laevis oocytes, the linearized plasmids were transcribed using the T7 or SP6 mMESSAGE-mMACHINE transcription kit (Ambion, USA). The harvesting of stage V–VI oocytes from an anaesthetized female X. laevis frog was previously described. Oocytes were injected with 50 nl of cRNA at a concentration of 1 ng/nl using a micro-injector (Drummond Scientific, USA). The oocytes were incubated in a solution containing (in mM): NaCl, 96; KCl, 2; CaCl2, 1.8; MgCl2, 2; HEPES, 5 (pH 7.4), supplemented with 50 mg/l gentamycin sulfate.
(§4) Two-electrode voltage-clamp recordings were performed at room temperature (18–22 °C) using a Geneclamp 500 amplifier (Molecular Devices, USA) controlled by a pClamp data acquisition system (Axon Instruments, USA), as described in[47]. Whole cell currents from oocytes were recorded 1–4 days after injection. Bath solution composition was ND96 (in mM): NaCl, 96; KCl, 2; CaCl2, 1.8; MgCl2, 2 and HEPES, 5 (pH 7.4). Voltage and current electrodes were filled with 3 M KCl. The resistances of both electrodes were kept between 0.7 and 1.5 MΩ. […] All data were analysed using pClamp Clampfit 10.0 (Molecular Devices, Downingtown, PA, USA) and Origin 7.5 software (Originlab, Northampton, MA, USA).

Shaker IR = assay: Two-electrode voltage clamp, Shaker IR in X. laevis oocytes; assay type: cell-based, Drosophila; settings: 10 μM, 18–22 °C, n ≥ 3
Method: as §3, §4

[2] = test system: murine neuroblastoma Neuro2a cells; assay: Intracellular ROS formation level (H2DCF-DA); assay type: cell-based
Method: We estimated whether rHCIQ2c1 is able to inhibit reactive oxygen species (ROS) production. After incubation of Neuro2a cells with rHCIQ2c1 (up to 10 µM) and 6-OHDA (25 µM), ROS content was evaluated by measurement of dichlorofluorescin intensity.
The intracellular ROS level was detected using 2,7-dichlordihydrofluorescein diacetate (H2DCF-DA) solution (Molecular Probes, final concentration 10 µM). In this study, mouse neuroblastoma Neuro2a cells seeded on 96-well plates were washed twice with serum-free DMEM and thereafter incubated for 1 h in serum-free MEM medium in the presence of compounds in concentrations from 10 pM to 10 µM. Cell were treated with 6-OHDA (25 μM) for 30 min at 37 °C with 5% CO2. Followed by treatment with 6-OHDA, the cells were washed once with PBS. After washing with serum-free DMEM medium, the cells were loaded with H2DCF-DA for 30 min. The intensity of dichlorofluorescin fluorescence was measured with plate reader PHERAstar FS (BMG Labtech, Germany) at λex = 485 nm and λem = 518 nm. The cytoprotective effect of peptides and the increase in cell viability under their action was calculated as a percentage, taking the cell viability treated with 6-OHDA as 100%.

[3] = α-chymotrypsin, SPR Biacore 3000, peptide immobilized on CM4 chip, HBS pH 7.4, 25 °C, protease 1 nM to 5 μM
[4] = neutrophil elastase, SPR Biacore 3000, peptide immobilized on CM4 chip, HBS pH 7.4, 25 °C
[5] = cathepsin G, SPR Biacore 3000, peptide immobilized on CM4 chip, HBS pH 7.4, 25 °C, protease 1 nM to 5 μM

Substance	SPR binding to α-chymotrypsin (in words) (α-chymotrypsin)	KA, association constant (α-chymotrypsin; α-chymotrypsin, SPR Biacore 3000, peptide immobilized on CM4 chip, HBS pH 7.4, 25 °C)	ka, association rate constant (α-chymotrypsin; [3])	kd, dissociation rate constant (α-chymotrypsin; [3])	Kd (α-chymotrypsin; α-chymotrypsin, SPR Biacore 3000, peptide immobilized on CM4 chip, HBS pH 7.4, 25 °C, read-out: KD, dissociation constant)	SPR binding to neutrophil elastase (in words) ([1]; SPR)	KA, association constant [1, 4]	ka, association rate constant [1, 4]	kd, dissociation rate constant [1, 4]	SPR binding to cathepsin G (in words) (cathepsin G)	KA, association constant (cathepsin G; cathepsin G, SPR Biacore 3000, peptide immobilized on CM4 chip, HBS pH 7.4, 25 °C)	ka, association rate constant (cathepsin G; [5])	kd, dissociation rate constant (cathepsin G; [5])	Kd (cathepsin G; cathepsin G, SPR Biacore 3000, peptide immobilized on CM4 chip, HBS pH 7.4, 25 °C, read-out: KD, dissociation constant)	Activity on Kv1.6 (rKv1.6)	Activity on Shaker IR (Shaker IR)	Reduction of ROS production ([2]; 0.001–0.01 µM peptide, pretreatment 1 h, 6-OHDA 25 µM 30 min, dichlorofluorescin fluorescence)	Concentration dependence of ROS level ([2]; up to 10 µM peptide, 6-OHDA 25 µM)	KD with elastase relative to rHCIQ2c1 ([1]; SPR, 25 °C)	Kd ([1]; neutrophil elastase, SPR Biacore 3000, peptide immobilized on CM4 chip, HBS pH 7.4, 25 °C, read-out: KD, dissociation constant)
rHCIQ2c1: recombinant Kunitz-peptide of Heteractis crispa, most prevalent isoform, mature peptide 58 aa, expressed in E. coli (IQGNICSEPKKVGRCRGSFPRFYFDSETGKCTPFIYGGCGGNGNNFETLHACRAICRA; ends and bridges not checked; cysteine pairing not given here)	specifically binds to all target proteinases	1.03e+07 M⁻¹	76900 s/M	0.00749 s⁻¹	97.4 nM	specifically binds to all target proteinases	7.9e+06 M⁻¹	68000 s/M	0.00861 s⁻¹	specifically binds to all target proteinases	3.58e+09 M⁻¹	1.29e+06 s/M	0.000359 s⁻¹	0.279 nM	neither 10 μM of rHCIQ2c1 nor rHCIQ4c7 exerted any activity on the Kv channels	neither 10 μM of rHCIQ2c1 nor rHCIQ4c7 exerted any activity on the Kv channels	34%	An increase in ROS formation when the concentration of rHCIQ2c1 increases from 0.01 to 1 µM, and its decrease again at 10 µM		
rHCIQ4c7: recombinant Kunitz-peptide of Heteractis crispa, isoform with the rare substitution Gly17Glu	bounds to trypsin and elastase only					bounds to trypsin and elastase only	1.05e+06 M⁻¹	11900 s/M	0.0114 s⁻¹	bounds to trypsin and elastase only					neither 10 μM of rHCIQ2c1 nor rHCIQ4c7 exerted any activity on the Kv channels	neither 10 μM of rHCIQ2c1 nor rHCIQ4c7 exerted any activity on the Kv channels			binding with elastase differed insignificantly	955 nM
